How the values were obtained:
COX-1 = COX-1 (UniProt P23219); test: Assay for COX-1 activity (PGE2 ELISA); conditions: read-out: COX-1 IC50; 10–20 minutes pre-incubation, reaction stopped after ten minutes, pH 8.0
Analgesia (Table I) = assay type: in vivo; set-up: inhibition in vivo: dose or concentration left out as unconfirmed; conditions: read-out: ANALGESIA % Inhibition; for inhibition in vivo at 10 mg/kg: @ 10 mpk (values marked *)
carrageenan foot edema = test: Rat carrageenan foot pad edema test; assay type: in vivo, Male Sprague-Dawley rats; set-up: inhibition in vivo: dose or concentration left out as unconfirmed; conditions: po, 3 h, dosed orally, foot volume three hours after carrageenan, read-out: RAT PAW EDEMA % Inhibition; for inhibition in vivo at 10 mg/kg: @ 10 mpk (values marked *)
Experimental: Rat Carrageenan Foot Pad Edema Test
Male Sprague-Dawley rats were selected in each group so that the average body weight was as close as possible. Rats were fasted with free access to water for over sixteen hours prior to the test. The rats were dosed orally (1 mL) with compounds suspended in vehicle containing 0.5% methylcellulose and 0.025% surfactant, or with vehicle alone. One hour later a subplantar injection of 0.1 mL of 1% solution of carrageenan/sterile 0.9% saline was administered and the volume of the injected foot was measured with a displacement plethysmometer connected to a pressure transducer with a digital indicator. Three hours after the injection of the carrageenan, the volume of the foot was again measured. The average foot swelling in a group of drug-treated animals was compared with that of a group of placebo-treated animals and the percentage inhibition of edema was determined (Otterness and Bliven, Laboratory Models for Testing NSAIDs, in Non-steroidal Anti-Inflammatory Drugs, (J. Lombardino, ed. 1985)).

COX-2 [1] = target: T1, COX-2 (UniProt P35354); test: Fast assay for COX-2 activity (PGE2 ELISA); assay type: biochemical, human or murine; conditions: fast assay: 10 min pre-incubation at 25° C., reaction stopped after two minutes, pH 7.5
T1 sequence (P35354 1-604): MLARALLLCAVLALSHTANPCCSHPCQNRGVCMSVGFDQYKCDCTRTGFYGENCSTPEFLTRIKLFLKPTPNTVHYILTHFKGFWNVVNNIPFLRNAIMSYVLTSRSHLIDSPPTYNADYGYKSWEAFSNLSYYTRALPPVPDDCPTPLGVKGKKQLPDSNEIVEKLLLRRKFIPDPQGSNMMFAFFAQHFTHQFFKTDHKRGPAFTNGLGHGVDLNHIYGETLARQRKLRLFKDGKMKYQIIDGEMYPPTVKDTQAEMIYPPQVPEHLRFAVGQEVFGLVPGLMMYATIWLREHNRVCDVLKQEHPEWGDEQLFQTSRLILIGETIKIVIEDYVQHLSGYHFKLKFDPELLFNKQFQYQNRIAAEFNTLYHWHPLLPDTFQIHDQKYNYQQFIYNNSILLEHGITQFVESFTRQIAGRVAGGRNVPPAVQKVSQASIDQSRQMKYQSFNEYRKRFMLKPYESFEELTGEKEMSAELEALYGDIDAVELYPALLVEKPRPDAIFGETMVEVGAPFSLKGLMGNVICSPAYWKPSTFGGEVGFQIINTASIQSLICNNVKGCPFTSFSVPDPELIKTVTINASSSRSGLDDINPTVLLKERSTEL

COX-2 [2] = target: T1, COX-2; test: Assay for COX-2 activity (PGE2 ELISA); conditions: read-out: COX-2 IC50; 10–20 minutes pre-incubation, reaction stopped after ten minutes, pH 8.0

Row | IC50 (COX-1) [nM] | melting point [°C] | IC50 (COX-2 [1]) [nM] | IC50 (COX-2 [2]) [nM] | SMILES | inhibition in vivo (Analgesia (Table I)) [%] | inhibition in vivo (carrageenan foot edema) [%] | inhibition in vivo at 10 mg/kg (Analgesia (Table I)) [%] | inhibition in vivo at 10 mg/kg (carrageenan foot edema) [%]
1 | 100 | 223.7 to 226 | 300 | 200 | O=C(O)C1=Cc2cc(Oc3ccc(C(F)(F)F)cc3)cc(Cl)c2OC1C(F)(F)F (stereo not drawn) [Example 105] | 69 | 75 |  | 
2 | 100 | 217.9 to 220.3 | < 100 | < 100 | O=C(O)C1=Cc2cc(Cl)cc(Cl)c2SC1C(F)(F)F (stereo not drawn) [Example 156, 6,8-Dichloro-2-trifluoromethyl-2H-1-benzothiopyran-3-carboxylic acid] | 66 | 54 |  | 
3 |  |  | 300 |  | O=C(O)C1=Cc2cc(Cl)ccc2OC1C(F)(F)F (stereo not drawn) [Example 1, 6-Chloro-2-trifluoromethyl-2H-1-benzopyran-3-carboxylic acid] | 58 | 57 |  | 
4 |  | 188.8 to 198.7 | < 100 |  | O=C(O)C1=Cc2cc(Cl)ccc2SC1C(F)(F)F (stereo not drawn) [Example 65, 6-Chloro-2-trifluoromethyl-2H-1-benzothiopyran-3-carboxylic acid] | 32 | 43 |  | 
5 | 1600 |  | < 100 | < 100 | O=C(O)C1=Cc2cc(C(F)F)ccc2OC1C(F)(F)F (stereo not drawn) [Example 81, 6-(Difluoromethyl)-2-(trifluoromethyl)-2H-1-benzopyran-3-carboxylic acid] | 44 | 36 |  | 
6 | 2800 |  |  | < 100 | O=C(O)C1=Cc2cc(Cl)c(Cl)c(Cl)c2OC1C(F)(F)F (stereo not drawn) [Example 84, 6,7,8-Trichloro-2-(trifluoromethyl)-2H-1-benzopyran-3-carboxylic acid] | 24 | 44 |  | 
7 | 51000 |  |  |  | O=C(O)C1=Cc2cc(OC(F)(F)F)ccc2OC1C(F)(F)F (stereo not drawn) [Example 16, 6-Trifluoromethoxy-2-trifluoromethyl-2H-1-benzopyran-3-carboxylic acid] | 34 | 48 |  | 
8 | 3700 | 223.6 to 225.6 | < 100 | < 100 | O=C(O)C1=Cc2cc(Cl)c(Oc3ccc(Cl)cc3Br)cc2OC1C(F)(F)F (stereo not drawn) [Example 188, 7-(2-Bromo-4-chlorophenoxy)-6-chloro-2-(trifluoromethyl)-2H-1-benzopyran-3-carboxylic acid] | 69 | 57 |  | 
9 | 43000 | 190.8 to 193 | 200 | 74000 | O=C(O)C1=Cc2cc(Cl)cc(F)c2OC1C(F)(F)F (stereo not drawn) [Example 46, 6-Chloro-8-fluoro-2-trifluoromethyl-2H-1-benzopyran-3-carboxylic acid] | 67 | 59 |  | 
10 | 1400 |  | < 100 | < 100 | O=C(O)C1=Cc2c(cc(Cl)c(Cl)c2Cl)OC1C(F)(F)F (stereo not drawn) [Example 83, 5,6,7-Trichloro-2-(trifluoromethyl)-2H-1-benzopyran-3-carboxylic acid] | 65 | 56 |  | 
11 |  |  | < 100 |  | O=C(O)C1=Cc2cc(Cl)c(Cl)cc2OC1C(F)(F)F (stereo not drawn) [Example 31, 6,7-Dichloro-2-trifluoromethyl-2H-1-benzopyran-3-carboxylic acid] |  |  | 37 | 39
12 | < 100 | 186.2 to 189 | < 100 | < 100 | C#Cc1cc(Cl)cc2c1OC(C(F)(F)F)C(C(=O)O)=C2 (stereo not drawn) [Example 115, 6-Chloro-8-ethynyl-2-(trifluoromethyl)-2H-1-benzopyran-3-carboxylic acid] | 62 | 52 |  | 
13 |  |  | 7000 |  | CC(C)(C)c1ccc2c(c1)OC(C(F)(F)F)C(C(=O)O)=C2 (stereo not drawn) [Example 12, 7-(1,1-Dimethylethyl)-2-trifluoromethyl-2H-1-benzopyran-3-carboxylic acid] | 37 | 30 |  | 
14 | 300 | 220.2 to 221.8 | < 100 | < 100 | O=C(O)C1=Cc2cc(Cl)c(Oc3ccccc3)cc2OC1C(F)(F)F (stereo not drawn) [Example 177, 6-Chloro-7-phenoxy-2-(trifluoromethyl)-2H-1-benzopyran-3-carboxylic acid] |  |  | 61 | 59
15 | > 100000 |  |  |  | Cc1cc(Cl)c2c(c1)C=C(C(=O)O)C(C(F)(F)F)O2 (stereo not drawn) [Example 39, 8-Chloro-6-methyl-2-trifluoromethyl-2H-1-benzopyran-3-carboxylic acid] | 8 | 18 |  | 
16 |  | 208 to 209 |  |  | CN1c2ccc(Cl)cc2C=C(C(=O)O)C1C(F)(F)F (stereo not drawn) [Example 165, 6-Chloro-1,2-dihydro-1-methyl-2-(trifluoromethyl)-3-quinolinecarboxylic acid] |  |  | 33 | 30
17 |  | 185.1 to 186.1 |  |  | N#Cc1ccc2c(c1)C=C(C(=O)O)C(C(F)(F)F)O2 (stereo not drawn) [Example 79, 6–Cyano-2-(trifluoromethyl)-2H-1-benzopyran-3-carboxylic acid] | 53 | 45 |  | 
18 | 57000 |  |  |  | Cc1cc(Cl)cc2c1OC(C(F)(F)F)C(C(=O)O)=C2 (stereo not drawn) [Example 38, 6-Chloro-8-methyl-2-trifluoromethyl-2H-1-benzopyran-3-carboxylic acid] | 55 | 47 |  | 

Reference: patent publication US7138411B2, “Substituted benzopyran derivatives for the treatment of inflammation” (G.D. Searle & Co., priority 1997, dated 2006)
